Results reported in ChEMBL document CHEMBL1201862, “PubChem BioAssay data set” (2004).
The source made the active and inactive calls.

Columns and labels:
[1] = system: INS1; experiment: INS-1E survival protection against cytokine death – cell-based, luminescence, retest, dose response (AID 449756); type: functional; conditions: Rattus norvegicus, INS1;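 also: cell death triggered by IL-1 beta plus TNF-alpha plus IFN-gamma mixture; protective hits raise ATP signal compared with cytokine alone wells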
[2] = system: Streptococcus sp. 'group A'; experiment: Streptococcus pyogenes SK(-)GAS viability under kanamycin – luminescence, BacTiterGlo, confirmation, counter-screen for streptokinase expression inhibitor project, dose response (AID 1900); type: functional, organism-based
[3] = system: HEK293; experiment: cells; conditions: Homo sapiens
[4] = system: Vero; experiment: cells; type: functional, cell-based; conditions: Chlorocebus sabaeus
[5] = decrease of insulin promoter-GFP reporter – imaging, high-content screening, mouse beta cells (AID 1628); type: functional; conditions: MIN6
[6] = system: HEK293; experiment: EBV LMP1 TES2 canonical NF-kB signalling blockers – cell-based, HEK293, luciferase, cherry-pick, dose response (AID 588343); type: functional; conditions: Homo sapiens
[7] = system: Streptococcus; experiment: GAS UMAA2166 growth inhibition – luminescence, BacTiterGlo, counter-screen for streptokinase expression inhibitor project, dose response (AID 1915); type: functional, organism-based;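 also: potency for reduction of bacterial viability or growth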
[8] = system: Vero; experiment: cells; type: functional; conditions: Chlorocebus sabaeus
[9] = Luminescence Cell-Based Dose Retest to Confirm Inhibitors of Cancer Stem Cells. [Related pubchem assays (depositor defined):AID2717, AID2721]; type: functional; conditions: Homo sapiens
[10] = MIN6 cell viability loss – mouse insulinoma, cytotoxicity control, dose response (AID 2122); type: functional;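 also: confirmatory high-throughput counterscreen run to flag cytotoxic compounds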
[11] = system: HEK293; experiment: cells; conditions: Homo sapiens; remark: listed apart in the source
[12] = target: T1, Endoribonuclease toxin MazF (Escherichia coli K-12, UniProt P0AE70); experiment: substrate-only fluorescence increase artefacts – biochemical, single-stranded RNase substrate, counter-screen for MazEF activator project, dose response (AID 588502); type: functional
T1 sequence (P0AE70 whole entry): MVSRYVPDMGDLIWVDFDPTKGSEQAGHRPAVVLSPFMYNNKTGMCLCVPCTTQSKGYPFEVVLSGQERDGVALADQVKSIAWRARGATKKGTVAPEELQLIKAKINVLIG

[13] = target: UDP-galactopyranose mutase (Mycobacterium tuberculosis, UniProt P9WIQ1); experiment: Inhibitors of Mycobacterium tuberculosis UDP-galactopyranose mutase (UGM) enzyme Measured in Biochemical System Using Plate Reader - 2105-02_Inhibitor_Dose_CherryPick_Activity. [Related pubchem assays (depositor defined):AID504439]
[14] = target: T1, Endoribonuclease toxin MazF; experiment: activation of MazEF endoribonuclease cleavage – biochemical, fluorescence, single-stranded RNA substrate, uHTS hits, dose response (AID 588481); type: functional
[15] = target: Induced myeloid leukemia cell differentiation protein Mcl-1 (Homo sapiens, UniProt Q07820); type: functional
[16] = target: T2, Rac GTPase-activating protein 1 (Homo sapiens, UniProt Q9H0H5); experiment: blockers of MgcRacGAP-driven Rac1 GTP hydrolysis – biochemical, ADP Hunter fluorescence, primary and confirmatory, confirmation (AID 624330); type: functional
T2 sequence (Q9H0H5 whole entry): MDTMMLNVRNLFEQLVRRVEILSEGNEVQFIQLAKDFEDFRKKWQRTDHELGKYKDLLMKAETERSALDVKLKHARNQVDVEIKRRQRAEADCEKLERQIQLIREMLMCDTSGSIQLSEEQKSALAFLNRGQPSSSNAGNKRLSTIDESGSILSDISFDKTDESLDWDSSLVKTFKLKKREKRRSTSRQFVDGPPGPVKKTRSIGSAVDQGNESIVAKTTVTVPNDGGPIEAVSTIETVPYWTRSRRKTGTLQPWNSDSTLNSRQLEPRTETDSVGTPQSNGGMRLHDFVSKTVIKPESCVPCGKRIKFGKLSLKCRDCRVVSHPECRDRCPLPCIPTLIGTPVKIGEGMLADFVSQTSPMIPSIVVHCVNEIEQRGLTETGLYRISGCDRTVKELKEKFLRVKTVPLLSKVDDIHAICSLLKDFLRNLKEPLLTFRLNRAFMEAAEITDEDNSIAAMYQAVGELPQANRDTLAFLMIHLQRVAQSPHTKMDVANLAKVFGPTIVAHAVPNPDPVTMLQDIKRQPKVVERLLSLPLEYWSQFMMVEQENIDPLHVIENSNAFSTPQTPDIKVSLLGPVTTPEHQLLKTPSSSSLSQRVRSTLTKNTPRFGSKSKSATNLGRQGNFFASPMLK

[17] = viability of uninfected HEp-2 cells – cell-based, HTS, cytotoxicity control for RSV inhibitor project, dose response (AID 2410); type: functional; conditions: human respiratory syncytial virus
[18] = target: T3, Tyrosine-protein phosphatase non-receptor type 22 (Homo sapiens, UniProt Q9Y2R2); type: functional
T3 sequence (Q9Y2R2 whole entry): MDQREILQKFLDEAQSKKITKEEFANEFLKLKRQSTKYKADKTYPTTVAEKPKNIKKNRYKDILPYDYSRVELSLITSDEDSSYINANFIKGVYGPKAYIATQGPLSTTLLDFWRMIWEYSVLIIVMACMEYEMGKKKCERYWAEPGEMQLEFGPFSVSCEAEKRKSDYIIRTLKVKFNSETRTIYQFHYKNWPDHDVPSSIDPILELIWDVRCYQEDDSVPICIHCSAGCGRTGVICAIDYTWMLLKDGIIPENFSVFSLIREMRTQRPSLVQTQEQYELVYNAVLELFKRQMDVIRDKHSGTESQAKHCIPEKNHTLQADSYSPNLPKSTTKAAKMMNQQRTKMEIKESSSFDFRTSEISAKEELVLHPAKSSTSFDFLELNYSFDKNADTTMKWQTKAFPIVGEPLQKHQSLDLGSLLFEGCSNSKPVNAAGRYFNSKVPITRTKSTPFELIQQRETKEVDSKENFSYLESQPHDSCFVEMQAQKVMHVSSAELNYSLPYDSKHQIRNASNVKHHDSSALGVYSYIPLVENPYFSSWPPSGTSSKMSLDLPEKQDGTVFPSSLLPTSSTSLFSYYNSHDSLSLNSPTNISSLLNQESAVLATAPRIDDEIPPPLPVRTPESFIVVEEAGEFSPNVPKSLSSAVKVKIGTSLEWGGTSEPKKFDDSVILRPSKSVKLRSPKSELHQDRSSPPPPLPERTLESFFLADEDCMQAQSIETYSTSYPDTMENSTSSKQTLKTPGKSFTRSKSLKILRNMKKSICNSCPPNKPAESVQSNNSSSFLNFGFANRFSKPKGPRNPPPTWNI

[19] = target: T4, Tyrosine-protein phosphatase non-receptor type 7 (Homo sapiens, UniProt P35236); type: functional
T4 sequence (P35236 whole entry): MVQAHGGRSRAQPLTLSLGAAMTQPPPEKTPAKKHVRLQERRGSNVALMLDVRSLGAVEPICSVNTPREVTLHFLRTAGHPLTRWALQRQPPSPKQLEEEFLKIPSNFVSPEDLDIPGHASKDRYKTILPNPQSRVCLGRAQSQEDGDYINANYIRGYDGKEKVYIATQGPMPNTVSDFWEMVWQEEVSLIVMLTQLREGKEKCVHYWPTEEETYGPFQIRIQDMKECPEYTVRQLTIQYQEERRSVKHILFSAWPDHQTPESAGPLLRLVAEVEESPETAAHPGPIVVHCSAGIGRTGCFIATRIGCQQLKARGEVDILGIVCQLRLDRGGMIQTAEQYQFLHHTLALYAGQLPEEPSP

[20] = target: T3, Tyrosine-protein phosphatase non-receptor type 22; type: functional; remark: listed apart in the source
[21] = target: T5, Histone-lysine N-methyltransferase NSD2 (Homo sapiens, UniProt O96028); type: biochemical
T5 sequence (O96028 whole entry): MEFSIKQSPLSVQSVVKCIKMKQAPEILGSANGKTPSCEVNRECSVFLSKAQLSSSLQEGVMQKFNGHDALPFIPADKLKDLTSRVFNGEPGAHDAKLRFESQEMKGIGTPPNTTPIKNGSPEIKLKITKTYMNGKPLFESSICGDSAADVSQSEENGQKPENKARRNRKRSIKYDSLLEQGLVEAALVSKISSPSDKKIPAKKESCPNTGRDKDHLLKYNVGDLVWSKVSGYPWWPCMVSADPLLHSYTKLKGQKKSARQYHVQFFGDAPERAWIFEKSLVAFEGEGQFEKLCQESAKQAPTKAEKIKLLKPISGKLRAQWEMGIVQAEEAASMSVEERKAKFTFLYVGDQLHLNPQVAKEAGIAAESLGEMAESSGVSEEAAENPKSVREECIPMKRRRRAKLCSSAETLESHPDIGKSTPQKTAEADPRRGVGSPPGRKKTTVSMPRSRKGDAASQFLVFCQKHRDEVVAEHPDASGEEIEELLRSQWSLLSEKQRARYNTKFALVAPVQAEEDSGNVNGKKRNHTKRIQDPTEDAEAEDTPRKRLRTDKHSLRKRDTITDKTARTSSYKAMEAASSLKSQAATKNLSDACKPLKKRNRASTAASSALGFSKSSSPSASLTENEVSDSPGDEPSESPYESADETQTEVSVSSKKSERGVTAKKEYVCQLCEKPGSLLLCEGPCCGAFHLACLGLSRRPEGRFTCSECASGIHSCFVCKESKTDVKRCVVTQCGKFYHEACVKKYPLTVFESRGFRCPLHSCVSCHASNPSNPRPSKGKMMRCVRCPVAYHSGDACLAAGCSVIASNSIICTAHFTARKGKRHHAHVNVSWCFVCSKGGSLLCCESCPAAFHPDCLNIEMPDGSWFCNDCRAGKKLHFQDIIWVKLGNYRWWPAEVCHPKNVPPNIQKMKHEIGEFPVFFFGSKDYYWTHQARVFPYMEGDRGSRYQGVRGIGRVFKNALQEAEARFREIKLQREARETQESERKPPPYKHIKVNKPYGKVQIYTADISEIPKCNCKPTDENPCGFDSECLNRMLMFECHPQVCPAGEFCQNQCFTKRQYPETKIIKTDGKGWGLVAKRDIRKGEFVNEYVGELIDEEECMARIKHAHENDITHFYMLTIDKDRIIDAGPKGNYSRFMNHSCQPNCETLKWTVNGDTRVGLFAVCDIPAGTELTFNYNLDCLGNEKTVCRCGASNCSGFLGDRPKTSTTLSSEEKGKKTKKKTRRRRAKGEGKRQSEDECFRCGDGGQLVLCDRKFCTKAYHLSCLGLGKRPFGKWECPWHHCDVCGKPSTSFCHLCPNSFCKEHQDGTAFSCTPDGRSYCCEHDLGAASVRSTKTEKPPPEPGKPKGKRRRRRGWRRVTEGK

[22] = target: Sphingosine 1-phosphate receptor 2 (Homo sapiens, UniProt O95136); experiment: Late stage counterscreen assay for S1P4 antagonists: Fluorescence dose response cell-based screening assay for antagonists of the Sphingosine 1-Phosphate Receptor 2 (S1P2). [Related pubchem assays (depositor defined):AID1510, AID1524, AID1692, AID1853, AID2332, AID489009, AID489017]; type: functional
[23] = target: Sphingosine 1-phosphate receptor 5 (Homo sapiens, UniProt Q9H228); experiment: Late stage counterscreen assay for S1P4 antagonists: Fluorescence dose response cell-based screening assay for antagonists of the Sphingosine 1-Phosphate Receptor 5 (S1P5). [Related pubchem assays (depositor defined):AID1510, AID1524, AID1692, AID1853, AID2332, AID489009, AID489017]; type: functional
[24] = target: Sphingosine 1-phosphate receptor 1 (Homo sapiens, UniProt P21453); experiment: Late stage counterscreen assay for S1P4 antagonists: Fluorescence dose response cell-based screening assay for antagonists of the Sphingosine 1-Phosphate Receptor 1 (S1P1). [Related pubchem assays (depositor defined):AID1510, AID1524, AID1692, AID1853, AID2332, AID489009, AID489017]; type: functional
[25] = target: Sphingosine 1-phosphate receptor 3 (Homo sapiens, UniProt Q99500); experiment: Late stage counterscreen assay for S1P4 antagonists: Fluorescence dose response cell-based screening assay for antagonists of the Sphingosine 1-Phosphate Receptor 3 (S1P3). [Related pubchem assays (depositor defined):AID1510, AID1524, AID1692, AID1853, AID2332, AID489009, AID489017]; type: functional
[26] = target: Bifunctional protein GlmU (Mycobacterium tuberculosis, UniProt P9WMN3); experiment: Inhibitors of Mycobacterial Glucosamine-1-phosphate acetyl transferase (GlmU). Secondary screen.; parameters: species or system Mycobacterium tuberculosis H37Rv
[27] = target: Lysine-specific demethylase 4C (Homo sapiens, UniProt Q9H3R0); experiment: inhibition of JMJD2C H3K9me3 demethylation – biochemical, DELFIA europium, cherry-picked samples, dose response (AID 488835); type: functional
[28] = target: Genome polyprotein (dengue virus type 2, UniProt P29990); experiment: flavivirus cap methylation enzyme inhibition – biochemical, confirmation dose response, primary screen (AID 588689); type: functional
[29] = target: Neurotensin receptor type 1 (Homo sapiens, UniProt P30989); type: functional;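 also: Image-based confirmatory dose-response assay measuring agonist activity at NTR1; NTR1-expressing U2OS osteosarcoma cells imaged for beta-arrestin GFP spot formation; agonist potency where compounds increase beta-arrestin recruitment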
Neurotensin receptor type 1, sequence (P30989 whole entry): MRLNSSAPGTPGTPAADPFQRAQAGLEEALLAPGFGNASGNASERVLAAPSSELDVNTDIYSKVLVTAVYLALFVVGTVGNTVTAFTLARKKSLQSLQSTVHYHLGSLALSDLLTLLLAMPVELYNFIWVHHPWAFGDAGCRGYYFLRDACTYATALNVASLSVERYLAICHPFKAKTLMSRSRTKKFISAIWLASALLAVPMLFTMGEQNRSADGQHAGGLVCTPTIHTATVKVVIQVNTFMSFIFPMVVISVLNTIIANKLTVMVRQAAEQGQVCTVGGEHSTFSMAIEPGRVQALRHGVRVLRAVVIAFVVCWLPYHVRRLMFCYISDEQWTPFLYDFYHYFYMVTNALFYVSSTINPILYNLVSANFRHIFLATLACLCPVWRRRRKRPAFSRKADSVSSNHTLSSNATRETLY

UDP-galactopyranose mutase, sequence (P9WIQ1 whole entry): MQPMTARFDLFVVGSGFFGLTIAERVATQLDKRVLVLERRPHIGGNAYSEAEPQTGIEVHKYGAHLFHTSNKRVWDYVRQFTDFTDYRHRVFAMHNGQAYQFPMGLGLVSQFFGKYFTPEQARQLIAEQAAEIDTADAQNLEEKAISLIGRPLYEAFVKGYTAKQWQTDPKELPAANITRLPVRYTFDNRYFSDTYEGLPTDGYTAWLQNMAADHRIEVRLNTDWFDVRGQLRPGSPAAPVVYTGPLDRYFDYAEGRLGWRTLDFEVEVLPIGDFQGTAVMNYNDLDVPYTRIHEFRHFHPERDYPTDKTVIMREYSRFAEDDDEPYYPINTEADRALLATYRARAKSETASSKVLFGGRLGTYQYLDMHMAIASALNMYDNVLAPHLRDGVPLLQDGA
Sphingosine 1-phosphate receptor 2, sequence (O95136 whole entry): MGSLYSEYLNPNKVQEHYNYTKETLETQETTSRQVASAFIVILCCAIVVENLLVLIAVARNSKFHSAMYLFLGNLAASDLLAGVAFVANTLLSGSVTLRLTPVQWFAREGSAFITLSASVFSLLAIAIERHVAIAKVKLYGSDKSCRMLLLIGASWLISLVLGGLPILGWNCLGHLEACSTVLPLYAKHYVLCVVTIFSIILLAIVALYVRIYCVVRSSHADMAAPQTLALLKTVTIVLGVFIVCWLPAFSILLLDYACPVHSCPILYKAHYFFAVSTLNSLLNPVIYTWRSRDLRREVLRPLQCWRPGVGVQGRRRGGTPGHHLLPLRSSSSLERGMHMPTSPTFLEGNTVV
Sphingosine 1-phosphate receptor 1, sequence (P21453 whole entry): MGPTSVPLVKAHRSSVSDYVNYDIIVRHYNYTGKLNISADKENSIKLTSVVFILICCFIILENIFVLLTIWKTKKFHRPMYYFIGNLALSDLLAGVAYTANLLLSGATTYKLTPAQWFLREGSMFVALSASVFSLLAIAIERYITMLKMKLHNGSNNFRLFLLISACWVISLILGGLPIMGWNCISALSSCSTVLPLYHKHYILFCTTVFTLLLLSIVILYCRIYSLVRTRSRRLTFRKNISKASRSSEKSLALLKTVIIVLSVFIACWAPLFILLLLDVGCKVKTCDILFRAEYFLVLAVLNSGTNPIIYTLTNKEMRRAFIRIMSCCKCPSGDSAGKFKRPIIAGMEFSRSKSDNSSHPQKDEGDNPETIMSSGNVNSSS
Induced myeloid leukemia cell differentiation protein Mcl-1, sequence (Q07820 whole entry): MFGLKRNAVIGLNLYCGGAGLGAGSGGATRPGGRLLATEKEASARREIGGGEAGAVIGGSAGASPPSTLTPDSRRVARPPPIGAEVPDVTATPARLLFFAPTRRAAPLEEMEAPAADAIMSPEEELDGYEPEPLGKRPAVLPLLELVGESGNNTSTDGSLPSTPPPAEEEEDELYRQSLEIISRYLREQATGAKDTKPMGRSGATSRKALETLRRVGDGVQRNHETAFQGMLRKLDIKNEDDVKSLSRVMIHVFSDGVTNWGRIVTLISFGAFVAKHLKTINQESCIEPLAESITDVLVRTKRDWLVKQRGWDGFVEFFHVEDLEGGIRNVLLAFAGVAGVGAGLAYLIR
Sphingosine 1-phosphate receptor 3, sequence (Q99500 whole entry): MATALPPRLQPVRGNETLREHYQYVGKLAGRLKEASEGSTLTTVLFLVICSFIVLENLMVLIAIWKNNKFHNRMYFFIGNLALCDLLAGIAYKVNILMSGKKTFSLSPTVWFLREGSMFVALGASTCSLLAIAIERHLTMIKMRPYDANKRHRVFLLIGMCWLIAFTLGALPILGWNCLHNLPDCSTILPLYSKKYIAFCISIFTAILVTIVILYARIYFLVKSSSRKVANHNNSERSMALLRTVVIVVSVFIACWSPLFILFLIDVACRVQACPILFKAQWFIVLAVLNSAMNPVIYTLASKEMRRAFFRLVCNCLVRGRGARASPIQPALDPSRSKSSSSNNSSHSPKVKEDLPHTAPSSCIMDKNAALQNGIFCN
Lysine-specific demethylase 4C, sequence (Q9H3R0 whole entry): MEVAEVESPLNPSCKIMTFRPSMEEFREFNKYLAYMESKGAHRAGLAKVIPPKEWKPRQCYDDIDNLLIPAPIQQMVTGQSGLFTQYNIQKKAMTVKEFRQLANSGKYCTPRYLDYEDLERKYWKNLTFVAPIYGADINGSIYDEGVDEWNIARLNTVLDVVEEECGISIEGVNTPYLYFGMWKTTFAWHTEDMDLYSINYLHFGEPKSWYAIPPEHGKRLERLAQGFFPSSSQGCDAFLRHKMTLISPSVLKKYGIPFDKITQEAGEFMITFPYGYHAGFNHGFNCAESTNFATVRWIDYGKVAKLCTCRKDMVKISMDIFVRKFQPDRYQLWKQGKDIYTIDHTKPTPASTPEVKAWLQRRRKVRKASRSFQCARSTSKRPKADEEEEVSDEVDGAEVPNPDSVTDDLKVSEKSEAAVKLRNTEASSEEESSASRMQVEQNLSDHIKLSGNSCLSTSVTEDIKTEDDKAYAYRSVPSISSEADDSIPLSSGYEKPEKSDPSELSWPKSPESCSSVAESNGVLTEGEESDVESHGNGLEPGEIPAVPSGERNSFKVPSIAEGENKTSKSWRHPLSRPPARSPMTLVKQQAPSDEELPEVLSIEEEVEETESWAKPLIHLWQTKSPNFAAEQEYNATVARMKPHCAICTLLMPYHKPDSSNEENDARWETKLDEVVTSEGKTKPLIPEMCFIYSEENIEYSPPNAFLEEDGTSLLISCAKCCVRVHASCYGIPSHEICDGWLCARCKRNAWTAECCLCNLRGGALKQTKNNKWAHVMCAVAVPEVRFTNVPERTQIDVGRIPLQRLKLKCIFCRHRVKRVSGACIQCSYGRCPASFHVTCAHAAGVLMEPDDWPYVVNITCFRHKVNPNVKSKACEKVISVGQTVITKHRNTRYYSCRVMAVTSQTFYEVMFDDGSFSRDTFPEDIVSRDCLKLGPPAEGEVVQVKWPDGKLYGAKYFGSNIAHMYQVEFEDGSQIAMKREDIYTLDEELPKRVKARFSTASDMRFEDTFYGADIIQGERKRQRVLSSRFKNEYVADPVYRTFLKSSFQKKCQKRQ
Bifunctional protein GlmU, sequence (P9WMN3 whole entry): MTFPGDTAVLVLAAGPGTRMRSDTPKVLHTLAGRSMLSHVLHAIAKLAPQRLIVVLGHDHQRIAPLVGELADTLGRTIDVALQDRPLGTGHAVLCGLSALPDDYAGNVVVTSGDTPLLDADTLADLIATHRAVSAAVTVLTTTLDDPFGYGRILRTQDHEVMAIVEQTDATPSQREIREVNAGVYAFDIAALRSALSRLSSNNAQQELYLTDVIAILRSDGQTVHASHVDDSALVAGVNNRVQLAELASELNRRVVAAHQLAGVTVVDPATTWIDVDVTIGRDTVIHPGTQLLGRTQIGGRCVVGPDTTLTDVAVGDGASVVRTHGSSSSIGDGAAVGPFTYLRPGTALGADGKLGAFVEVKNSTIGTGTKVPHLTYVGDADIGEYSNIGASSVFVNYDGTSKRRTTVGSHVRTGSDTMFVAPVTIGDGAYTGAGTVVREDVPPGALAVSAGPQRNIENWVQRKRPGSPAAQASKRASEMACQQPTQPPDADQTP
Genome polyprotein, sequence (P29990 2492-3391 limits assumed): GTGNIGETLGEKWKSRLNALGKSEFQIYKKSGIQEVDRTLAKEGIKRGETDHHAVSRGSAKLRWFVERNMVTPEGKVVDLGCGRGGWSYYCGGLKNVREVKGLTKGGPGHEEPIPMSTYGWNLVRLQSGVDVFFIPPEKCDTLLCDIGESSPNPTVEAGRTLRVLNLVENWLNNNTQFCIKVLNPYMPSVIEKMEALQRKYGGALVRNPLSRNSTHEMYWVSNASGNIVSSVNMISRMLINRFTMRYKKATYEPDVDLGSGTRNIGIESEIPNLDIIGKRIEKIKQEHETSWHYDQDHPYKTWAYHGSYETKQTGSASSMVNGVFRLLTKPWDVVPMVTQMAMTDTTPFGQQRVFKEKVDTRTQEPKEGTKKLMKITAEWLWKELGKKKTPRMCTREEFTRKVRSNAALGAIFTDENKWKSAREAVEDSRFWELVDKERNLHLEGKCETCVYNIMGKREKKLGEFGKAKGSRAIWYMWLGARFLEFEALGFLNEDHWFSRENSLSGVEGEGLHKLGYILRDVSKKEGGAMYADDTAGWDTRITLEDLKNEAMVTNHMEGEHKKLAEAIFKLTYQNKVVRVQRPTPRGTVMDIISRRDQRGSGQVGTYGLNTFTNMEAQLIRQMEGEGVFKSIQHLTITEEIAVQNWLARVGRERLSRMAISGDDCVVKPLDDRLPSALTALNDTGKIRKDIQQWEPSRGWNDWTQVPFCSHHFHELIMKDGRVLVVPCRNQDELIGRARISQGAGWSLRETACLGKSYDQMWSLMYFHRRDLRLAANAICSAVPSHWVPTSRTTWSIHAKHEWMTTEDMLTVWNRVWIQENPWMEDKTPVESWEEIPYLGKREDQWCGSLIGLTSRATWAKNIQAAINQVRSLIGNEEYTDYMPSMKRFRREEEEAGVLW

COc1ccc(O)c(/C=N/Nc2nc(Nc3ccccc3)nc(-n3nc(C)cc3C)n2)c1
AC50 [1]: 1.01 µM (active)
EC50 [2]: 1.07 µM (active)
EC50 [3]: > 59.6 µM (inactive)
IC50 [4]: > 12.5 µM (active)
IC50 [5]: 1.67 µM (active)
AC50 [6]: 10.7 µM (active)
EC50 [7]: 2.16 µM (active)
CC50 [8]: 11.8 µM (active)
AC50 [9]: 4.75 µM (active)
IC50 [10]: 0.878 µM (active)
EC50 [11]: > 59.6 µM (inactive)

Oc1[nH]c2ccc(Br)cc2c1N=Nc1ccc(F)cc1
EC50 [12]: 45.8 µM (inactive)
AC50 [13]: 91.6 µM (active)
EC50 [14]: > 99 µM (inactive)

O=c1oc2ccccc2cc1-c1csc(Nc2ccc(O)cc2)n1
EC50 [12]: > 99 µM (inactive)
IC50 [15]: 2.76 µM (active)
EC50 [14]: > 99 µM (inactive)
IC50 [5]: 2.81 µM (active)
IC50 [16]: 70.1 µM (active)
CC50 [17]: > 50 µM (active)
IC50 [10]: 4.07 µM (active)

Cc1ccc(-n2c(=O)c3sccc3n(CC(=O)NCC3CCCO3)c2=O)cc1F (configuration not stated)
IC50 [18]: > 79.4 µM (inactive)
IC50 [19]: > 79.4 µM (inactive)
IC50 [20]: > 79.4 µM (inactive)

COc1ccc(-n2c(C)ccc2-c2ccccc2)cn1
AC50 [13]: 58 µM (active)
AC50 [21]: > 20 µM (inactive)

COc1ccc(OC(C)C(=O)N2CC(C)OC(C)C2)cc1 (configuration not stated)
IC50 [18]: > 79.4 µM (inactive)
IC50 [19]: > 79.4 µM (inactive)
IC50 [20]: > 79.4 µM (inactive)

Cc1cccc(C)c1NC(=O)c1ccc(-c2cc(F)ccc2F)o1
IC50 [22]: 16.9 µM (inactive)
IC50 [23]: > 25 µM (inactive)
IC50 [24]: > 25 µM (inactive)
IC50 [25]: > 25 µM (inactive)

O=C1NC(=O)C(=Cc2ccc(Sc3ccccc3)o2)C(=O)N1
IC50 [26]: 369 µM (active)
AC50 [27]: 10.6 µM (active)
IC50 [28]: > 100 µM (active)
EC50 [29]: 11.2 µM (active)
